SMILES strings stand for the structures. Some results are limits rather than exact numbers.

For 22 compounds, IC50 results are on record in patent publication US9266883B2, “Ring-fused bicyclic pyridyl derivatives as FGFR4 inhibitors” (Novartis AG, priority 2013, dated 2016).

One assay addresses Tel-FGFR4 (Homo sapiens (Human), UniProt P22455). In words: In vitro cellular kinase assay for FGFR4 (BaF3-Tel-FGFR4 cells, MSD capture ELISA of tyrosine phosphorylation). The assay is classed as cell-based. Particulars: BaF3-Tel-FGFR4 cells, 1 hour incubation; read-out: Cellular BaF3 FGFR4 IC50. (In general: An ELISA detects its analyte on a solid surface through an enzyme-linked reagent.)

Assay [1] deals with HuH-7 hepatocellular carcinoma cells. The experiment in a line: CellTiter Glo (CTG) Assay. The note with it: Homo sapiens, Huh-7, 72 h, read-out: HUH7 proliferation (nM) CTG.
Assay [2] has as its target FGFR4 (GST-FGFR4(388-802)) (Homo sapiens (Human), UniProt P22455). In words: In-vitro biochemical kinase assay for FGFR4 (Caliper microfluidic mobility shift). The note with it: read-out: Biochemical FGFR4 IC50.
A further assay has as its target FGFR1 (407-822) (Homo sapiens (Human), UniProt P11362). In words: In vitro biochemical assay for FGFR1.
For a further assay, the target named is FGFR2 (406-821) (Homo sapiens (Human), UniProt P21802). The experiment in a line: In vitro biochemical assay for FGFR2.
Chain of FGFR2 (406-821) (P21802 406-821): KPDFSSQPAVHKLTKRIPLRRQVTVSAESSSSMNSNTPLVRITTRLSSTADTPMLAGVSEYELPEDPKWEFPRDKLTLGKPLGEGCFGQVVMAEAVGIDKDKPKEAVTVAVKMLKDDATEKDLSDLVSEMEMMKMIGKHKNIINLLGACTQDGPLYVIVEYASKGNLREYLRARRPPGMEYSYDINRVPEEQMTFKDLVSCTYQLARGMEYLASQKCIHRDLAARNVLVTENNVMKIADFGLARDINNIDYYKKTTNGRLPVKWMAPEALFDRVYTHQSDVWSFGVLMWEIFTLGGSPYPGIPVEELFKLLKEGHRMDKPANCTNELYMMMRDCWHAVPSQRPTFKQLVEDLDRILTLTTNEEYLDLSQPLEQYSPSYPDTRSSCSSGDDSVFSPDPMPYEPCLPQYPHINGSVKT
A further assay concerns the target FGFR3 (411-806) (Homo sapiens (Human), UniProt P22607). The experiment in a line: In vitro biochemical assay for FGFR3.

Chain of FGFR4 (GST-FGFR4(388-802)) (P22455 388-802): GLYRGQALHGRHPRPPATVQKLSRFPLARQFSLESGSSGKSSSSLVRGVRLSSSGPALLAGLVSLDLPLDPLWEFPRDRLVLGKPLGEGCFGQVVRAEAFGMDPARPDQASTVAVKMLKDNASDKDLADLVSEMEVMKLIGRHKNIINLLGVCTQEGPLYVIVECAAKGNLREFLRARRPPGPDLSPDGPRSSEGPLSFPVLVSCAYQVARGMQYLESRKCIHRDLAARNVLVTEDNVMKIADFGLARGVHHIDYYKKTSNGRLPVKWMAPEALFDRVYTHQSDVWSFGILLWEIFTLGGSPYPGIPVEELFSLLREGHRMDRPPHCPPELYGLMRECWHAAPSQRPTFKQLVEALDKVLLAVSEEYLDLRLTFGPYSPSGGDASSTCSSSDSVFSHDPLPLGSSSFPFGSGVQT
Chain of FGFR1 (407-822) (P11362 407-822): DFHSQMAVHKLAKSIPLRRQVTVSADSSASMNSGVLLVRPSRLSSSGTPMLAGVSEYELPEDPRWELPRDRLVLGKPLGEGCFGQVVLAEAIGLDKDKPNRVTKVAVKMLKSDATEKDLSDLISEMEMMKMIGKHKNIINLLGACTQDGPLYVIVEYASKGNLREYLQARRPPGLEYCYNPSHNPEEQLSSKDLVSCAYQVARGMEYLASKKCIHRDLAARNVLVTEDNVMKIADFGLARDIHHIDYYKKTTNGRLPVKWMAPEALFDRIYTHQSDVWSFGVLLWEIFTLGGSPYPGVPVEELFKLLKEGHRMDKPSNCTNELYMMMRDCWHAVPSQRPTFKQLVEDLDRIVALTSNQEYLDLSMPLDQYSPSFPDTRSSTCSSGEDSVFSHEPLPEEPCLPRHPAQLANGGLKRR
Chain of Tel-FGFR4 (P22455 other isoform, or with tags, fused parts or gaps): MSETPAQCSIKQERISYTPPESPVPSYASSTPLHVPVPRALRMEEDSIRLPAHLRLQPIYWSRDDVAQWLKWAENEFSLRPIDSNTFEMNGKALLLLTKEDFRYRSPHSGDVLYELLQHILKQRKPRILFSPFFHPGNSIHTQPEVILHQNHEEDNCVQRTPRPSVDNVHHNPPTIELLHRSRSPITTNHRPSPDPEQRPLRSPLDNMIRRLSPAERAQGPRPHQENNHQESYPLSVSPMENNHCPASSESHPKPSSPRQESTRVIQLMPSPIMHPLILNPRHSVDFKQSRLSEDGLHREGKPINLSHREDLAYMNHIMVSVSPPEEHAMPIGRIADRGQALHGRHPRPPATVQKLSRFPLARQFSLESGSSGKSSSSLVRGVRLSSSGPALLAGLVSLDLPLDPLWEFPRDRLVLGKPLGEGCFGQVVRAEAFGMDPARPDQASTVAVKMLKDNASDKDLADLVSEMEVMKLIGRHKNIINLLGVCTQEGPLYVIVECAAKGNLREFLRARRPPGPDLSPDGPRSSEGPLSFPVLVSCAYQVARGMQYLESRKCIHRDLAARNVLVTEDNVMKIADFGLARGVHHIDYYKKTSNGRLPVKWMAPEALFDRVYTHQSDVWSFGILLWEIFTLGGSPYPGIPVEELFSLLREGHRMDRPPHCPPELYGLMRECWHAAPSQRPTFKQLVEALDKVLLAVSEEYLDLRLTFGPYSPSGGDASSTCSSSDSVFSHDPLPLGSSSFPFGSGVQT
Chain of FGFR3 (411-806) (P22607 411-806): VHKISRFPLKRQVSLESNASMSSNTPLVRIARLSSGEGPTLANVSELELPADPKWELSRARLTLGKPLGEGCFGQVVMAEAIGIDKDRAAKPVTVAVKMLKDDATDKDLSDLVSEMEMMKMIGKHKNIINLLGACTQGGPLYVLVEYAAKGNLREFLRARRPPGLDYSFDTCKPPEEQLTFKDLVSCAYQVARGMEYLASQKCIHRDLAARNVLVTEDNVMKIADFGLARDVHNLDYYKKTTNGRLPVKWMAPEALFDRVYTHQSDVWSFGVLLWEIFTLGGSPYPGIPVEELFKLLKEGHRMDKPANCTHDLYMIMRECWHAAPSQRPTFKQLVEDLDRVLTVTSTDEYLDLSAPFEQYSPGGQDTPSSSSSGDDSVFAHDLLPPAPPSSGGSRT

In the case of `N#Cc1cnc(NC(=O)N2CCCc3cc(CO)c(C=O)nc32)cc1OCC1CCCCO1` (racemic) [Example 44, N-(5-cyano-4-((tetrahydro-2H-pyran-2-yl)methoxy)pyridin-2-yl)-7-formyl-6-(hydroxymethyl)-3,4-dihydro-1,8-naphthyridine-1(2H)-carboxamide], the IC50 at Tel-FGFR4 came to 31.3 nM; in assay [1] it was 1230 nM; in assay [2], 8.1 nM.

With `N#Cc1cnc(NC(=O)N2CCCc3cc(CO)c(C=O)nc32)cc1NC1CCOC1` (racemic) [Example 56, N-(5-cyano-4-((tetrahydrofuran-3-yl)amino)pyridin-2-yl)-7-formyl-6-(hydroxymethyl)-3,4-dihydro-1,8-naphthyridine-1(2H)-carboxamide], the IC50 against FGFR1 (407-822), against FGFR2 (406-821) and against FGFR3 (411-806) was greater than 10000 nM in each case.

On to `COC(C)CNc1cc(NC(=O)N2CCCc3cc(CO)c(C=O)nc32)ncc1C#N` (racemic) [Example 57, N-(5-cyano-4-((2-methoxypropyl)amino)pyridin-2-yl)-7-formyl-6-(hydroxymethyl)-3,4-dihydro-1,8-naphthyridine-1(2H)-carboxamide], for which the IC50 was 11.3 nM on Tel-FGFR4, 436 nM in assay [1] and 3.9 nM in assay [2].

`N#Cc1cnc(NC(=O)N2CCCc3cc(CO)c(C=O)nc32)cc1N[C@@H]1[C@H]2CC[C@H](C2)[C@@H]1CO` (racemic) [Example 65, N-(5-cyano-4-(((1S*,2R*,3S*,4R*)-3-(hydroxymethyl)bicyclo[2.2.1]heptan-2-yl)amino)pyridin-2-yl)-7-formyl-6-(hydroxymethyl)-3,4-dihydro-1,8-naphthyridine-1(2H)-carboxamide]: the IC50 at Tel-FGFR4 is 14.6 nM; in assay [1], 65 nM; in assay [2], 0.8 nM.

For the compound `CN(C)CC(C)(O)CNc1cc(NC(=O)N2CCCc3cc(CO)c(C=O)nc32)ncc1C#N` (racemic) [Example 87, N-(5-cyano-4-((3-(dimethylamino)-2-hydroxy-2-methylpropyl)amino)pyridin-2-yl)-7-formyl-6-(hydroxymethyl)-3,4-dihydro-1,8-naphthyridine-1(2H)-carboxamide], the IC50 against FGFR1 (407-822), against FGFR2 (406-821) and against FGFR3 (411-806) was greater than 10000 nM each time.

In the case of `N#Cc1cnc(NC(=O)N2CCCc3cc(CN4CCCC4=O)c(C=O)nc32)cc1OCC1CCNC(=O)C1` (racemic) [Example 225, N-(5-cyano-4-((2-oxopiperidin-4-yl)methoxy)pyridin-2-yl)-7-formyl-6-((2-oxopyrrolidin-1-yl)methyl)-3,4-dihydro-1,8-naphthyridine-1(2H)-carboxamide], the values for the IC50 (on Tel-FGFR4; in assay [1]; in assay [2]) were 76.5 nM, 1000 nM and 5.7 nM, respectively.

Consider `O=Cc1ccc2c(n1)N(C(=O)Nc1ccc(C(F)(F)F)cn1)CCC2` [Example 1, 7-formyl-N-(5-(trifluoromethyl)pyridin-2-yl)-3,4-dihydro-1,8-naphthyridine-1(2H)-carboxamide], for which the IC50 at FGFR1 (407-822), at FGFR2 (406-821) and at FGFR3 (411-806) was greater than 10000 nM in each case.

Regarding `N#Cc1ccc(NC(=O)N2CCCc3ccc(C=O)nc32)nc1` [Example 3, N-(5-cyanopyridin-2-yl)-7-formyl-3,4-dihydro-1,8-naphthyridine-1(2H)-carboxamide], the IC50 against FGFR1 (407-822), on FGFR2 (406-821) and against FGFR3 (411-806) was greater than 10000 nM in each case.

Regarding `N#Cc1cnc(NC(=O)N2CCCc3ccc(C=O)nc32)nc1` [Example 8, N-(5-cyanopyrimidin-2-yl)-7-formyl-3,4-dihydro-1,8-naphthyridine-1(2H)-carboxamide], the IC50 on FGFR1 (407-822), at FGFR2 (406-821) and against FGFR3 (411-806) was greater than 10000 nM throughout.

For the compound `COCCNc1cc(NC(=O)N2CCCc3cc(CN4CC[C@H](O)C4=O)c(C=O)nc32)ncc1C#N` [Example 100, (S)-N-(5-cyano-4-((2-methoxyethyl)amino)pyridin-2-yl)-7-formyl-6-((3-hydroxy-2-oxopyrrolidin-1-yl)methyl)-3,4-dihydro-1,8-naphthyridine-1(2H)-carboxamide], the IC50 came to 5.3 nM on Tel-FGFR4, 23.5 nM in assay [1] and 0.9 nM in assay [2].

Regarding `COCCNc1cc(NC(=O)N2CCCc3cc(CN4CC[C@@H](O)C4=O)c(C=O)nc32)ncc1C#N` [Example 105, (R)-N-(5-cyano-4-((2-methoxyethyl)amino)pyridin-2-yl)-7-formyl-6-((3-hydroxy-2-oxopyrrolidin-1-yl)methyl)-3,4-dihydro-1,8-naphthyridine-1(2H)-carboxamide], the IC50 came to 6.2 nM at Tel-FGFR4, 32.5 nM in assay [1] and 0.8 nM in assay [2].

Turning to `CCc1cc(NC(=O)N2CCCc3cc(C=O)c(C=O)nc32)ncc1C#N` [Example 106, N-(5-cyano-4-ethylpyridin-2-yl)-6,7-diformyl-3,4-dihydro-1,8-naphthyridine-1(2H)-carboxamide], the values for the IC50 (at Tel-FGFR4; in assay [1]; in assay [2]) were 2530 nM, greater than 3000 nM and 95 nM, respectively.

In the case of `COCCNc1cc(NC(=O)N2CCCc3cc(CN(CCN(C)C)S(C)(=O)=O)c(C=O)nc32)ncc1C#N` [Example 144, N-(5-cyano-4-((2-methoxyethyl)amino)pyridin-2-yl)-6-((N-(2-(dimethylamino)ethyl)methylsulfonamido)methyl)-7-formyl-3,4-dihydro-1,8-naphthyridine-1(2H)-carboxamide], the IC50 on Tel-FGFR4 worked out at 18.5 nM; in assay [1], 504 nM; in assay [2], 2.3 nM.

Consider `CC(C)Oc1cc(NC(=O)N2CCCc3cc(CN(C)C(=O)CN(C)C)c(C=O)nc32)ncc1C#N` [Example 145, N-(5-cyano-4-isopropoxypyridin-2-yl)-6-((2-(dimethylamino)-N-methylacetamido)methyl)-7-formyl-3,4-dihydro-1,8-naphthyridine-1(2H)-carboxamide], for which the IC50 at Tel-FGFR4 is 15 nM; in assay [1] it was 154 nM; in assay [2], 0.4 nM.

As to `COC[C@@H](Oc1cc(NC(=O)N2CCCc3cc(C(F)F)c(C=O)nc32)ncc1C#N)C(F)(F)F` [Example 173, (R)-N-(5-cyano-4-((1,1,1-trifluoro-3-methoxypropan-2-yl)oxy)pyridin-2-yl)-6-(difluoromethyl)-7-formyl-3,4-dihydro-1,8-naphthyridine-1(2H)-carboxamide], the IC50 worked out at 142 nM on Tel-FGFR4, 1360 nM in assay [1] and 33 nM in assay [2].

In the case of `CC(=O)N(C)Cc1cc2c(nc1C=O)N(C(=O)Nc1cc(NCCOC(F)(F)F)c(C#N)cn1)CCC2` [Example 188, N-(5-cyano-4-((2-(trifluoromethoxy)ethyl)amino)pyridin-2-yl)-7-formyl-6-((N-methylacetamido)methyl)-3,4-dihydro-1,8-naphthyridine-1(2H)-carboxamide], the IC50 on Tel-FGFR4 was 5.2 nM; in assay [1] it was 59 nM; in assay [2] it was 0.4 nM.

Consider `CC(C)n1cnc2cnc(NC(=O)N3CCCc4cc(CN5CCCC5=O)c(C=O)nc43)cc21` [Example 220, 7-formyl-N-(1-isopropyl-1H-imidazo[4,5-c]pyridin-6-yl)-6-((2-oxopyrrolidin-1-yl)methyl)-3,4-dihydro-1,8-naphthyridine-1(2H)-carboxamide], for which the results for the IC50 (at Tel-FGFR4; in assay [1]; in assay [2]) were 94 nM, greater than 3000 nM and 96 nM, respectively.

As to `COCCNc1cc(NC(=O)N2CCCc3cc(CN4C[C@@H](C)N[C@@H](C)C4)c(C=O)nc32)ncc1C#N` [Example 242, N-(5-cyano-4-((2-methoxyethyl)amino)pyridin-2-yl)-6-(((3R,5S)-3,5-dimethylpiperazin-1-yl)methyl)-7-formyl-3,4-dihydro-1,8-naphthyridine-1(2H)-carboxamide], the IC50 at Tel-FGFR4 was determined as 27 nM; in assay [1], 1780 nM; in assay [2], 2.6 nM.

Take `COCCNc1cc(NC(=O)N2CCCc3cc(CN4CCN(C)C(C)(C)C4=O)c(C=O)nc32)ncc1C#N` [Example 245, N-(5-cyano-4-((2-methoxyethyl)amino)pyridin-2-yl)-7-formyl-6-((3,3,4-trimethyl-2-oxopiperazin-1-yl)methyl)-3,4-dihydro-1,8-naphthyridine-1(2H)-carboxamide]: the IC50 came to 11.5 nM at Tel-FGFR4 and 103 nM in assay [1].

For `COCCNc1cc(NC(=O)N2CCCc3cc(C4CCOCC4)c(C=O)nc32)ncc1C#N` [Example 249, N-(5-cyano-4-((2-methoxyethyl)amino)pyridin-2-yl)-7-formyl-6-(tetrahydro-2H-pyran-4-yl)-3,4-dihydro-1,8-naphthyridine-1(2H)-carboxamide], the IC50 is 222 nM in assay [1], greater than 10000 nM against FGFR1 (407-822) and greater than 10000 nM against FGFR2 (406-821).

With `COCCNc1cc(NC(=O)N2CCCc3cc(-n4ccnc4)c(C=O)nc32)ncc1C#N` [Example 254, N-(5-cyano-4-((2-methoxyethyl)amino)pyridin-2-yl)-7-formyl-6-(1H-imidazol-1-yl)-3,4-dihydro-1,8-naphthyridine-1(2H)-carboxamide], the IC50 on Tel-FGFR4 was determined as 44.5 nM; in assay [1], 1160 nM; in assay [2] it was 1.1 nM.

Regarding `COCCNc1cc(NC(=O)N2CCCc3cc(N4CCOC4=O)c(C=O)nc32)ncc1C#N` [Example 263, N-(5-cyano-4-((2-methoxyethyl)amino)pyridin-2-yl)-7-formyl-6-(2-oxooxazolidin-3-yl)-3,4-dihydro-1,8-naphthyridine-1(2H)-carboxamide], the figures for the IC50 (at Tel-FGFR4; in assay [1]; in assay [2]) were 11 nM, 894 nM and 0.2 nM, respectively.
